# Columns and labels:
# [1] = target: T1, PSEN1 Y154A–APH1A γ-secretase complex (Homo sapiens, UniProt P49768, Y154A); assay: Aβ40 secretion, MEF cell pool restored with PSEN1 Y154A–APH1A; assay type: cell-based; conditions: decimal comma
# T1 construct: expressed in transfected cells; host or cells: Psen1/2 double KO/Aph1ABC triple KO MEFs, pools without clonal selection
# Protocol: (§1) We turned to experimental site–directed mutagenesis and selected a series of amino acids (Fig. 3) in the entrance channel for mutation to alanine. […] More importantly, they were all enzymatically active as shown by the secretion of Aβ40 in the supernatants of the cell cultures (Fig. 3B).
# (§2) Conditional Psen1/2 double KO mice were crossed with conditional Aph1ABC triple KO mice ([29], [52], [58], [59]). At embryonic day 7.5, embryos were dissected and dissociated, and cells were plated in the presence of Dulbecco’s modified Eagle’s medium (DMEM)/F12 50% fetal calf serum (FCS) (Invitrogen). Primary MEFs were immortalized by transduction with LargeT antigen. Psen1/2 double KO/Aph1ABC triple KO MEFs were generated by transduction with a Cre-GFP–expressing adenoviral vector, and GFP-positive MEFs were sorted by fluorescence-activated cell sorting analysis. Psen1/2 Aph1ABC-deficient MEFs were maintained in DMEM/f12 10% FCS. To rescue γ-secretase expression, Psen1/2 double KO/Aph1ABC triple KO MEFs were transduced using Murine Stem Cell Virus retroviral vector system (pMSCV) viral vectors (Clontech) containing the human coding sequences of the different PSEN and APH1 homologs and the zeocin selection marker. An Internal Ribosome Entry Site sequence was cloned between the coding sequences for PSEN and APH1 to ensure co-expression of both proteins. Stable transfected cell lines were selected using 500-μg/ml zeocin (Invitrogen). Four different combinations were made: PSEN1 and APH1AL, PSEN1 and APH1B, PSEN2 and APH1AL, and PSEN2 and APH1B. These cell lines were transduced with pMSCV viral vectors (Clontech) expressing APP-C99-GFP-puromycin. […]
# (§3) The number of plated cells and incubation times were determined in respect to linearity of Aβ peptide secretion, the dynamic range of Aβ peptide quantification in the medium, and sensitivity to dimethylsulfoxide (DMSO). […] The cell viability was assessed using the CellTiter-Glo Luminescent assay (Promega) that measures ATP production. […] We however measured five compounds at the Leuven site and noticed that absolute IC50 values were different (Fig. S2). […]
# [2] = target: T2, PSEN1 Y154A–APH1A γ-secretase complex (Homo sapiens, UniProt P49768+Q92542+Q96BI3+Q9NZ42, Y154A); assay: as above; assay type: cell-based; conditions: PSEN1 Y154A (TM2)–APH1A cell pool; N = 3 to 4; mean (95% CI); decimal comma
# T2 construct: expressed in transfected cells; host or cells: Psen1/2 double KO/Aph1ABC triple KO MEFs, pools without clonal selection
# Protocol: as §1, §2, §3
"IC50 ([1]; PSEN1 Y154A (TM2)–APH1A cell pool, N = 3 to 4, mean (95% CI))",IC50 fold change to WT ([1]; PSEN1 Y154A–APH1A cell pool),IC50 [2],SMILES
0.103 µM,"0,611 fold",,C[C@H](NC(=O)Cc1cc(F)cc(F)c1)C(=O)N[C@H](C(=O)OC(C)(C)C)c1ccccc1 [DAPT]
,,1.03 µM,O=S(=O)(c1ccc(Cl)cc1)N1[C@H]2CC[C@@H]([C@H]1c1ccc(C(F)(F)F)cc1)[C@@H](O)C2 [(+)-9b]

# — paper PMC10318456, “Selective inhibitors of the PSEN1–gamma-secretase complex” (The Journal of Biological Chemistry, 2023)
